Results published in patent publication US7138361B2, “Herbicidal heterocycles” (E. I. du Pont de Nemours and Company, priority 2000, dated 2006).

Legend:
Type in all cases: in vivo
Nightshade [1] = assay: Test C preemergence; conditions: Rate 500 g/ha, visual evaluation after 12 to 14 days
[2] = test system: lambsquarters (Chenopodium album); assay: Test C preemergence
Method in brief: (§1)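 Test chemicals, formulated in a non-phytotoxic solvent mixture with surfactant, were applied preemergence to planted seeds or postemergence to plants 2 to 18 cm tall (1- to 4-leaf stage). After 12 to 14 days in a greenhouse, injury was visually rated against untreated controls on a 0–100 scale.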

kochia (Kochia scoparia) = assay: Test C preemergence
Method in brief: as §1

[3] = test system: velvetleaf (Abutilon theophrasti); assay: Test C preemergence
Method in brief: as §1

[4] = test system: bermudagrass (Cynodon dactylon); assay: Test C preemergence
Method in brief: as §1

[5] = test system: goosegrass (Eleusine indica); assay: Test C preemergence
Method in brief: as §1

[6] = test system: johnsongrass (Sorghum halepense); assay: Test C preemergence
Method in brief: as §1

[7] = test system: woolly cupgrass (Eriochloa villosa); assay: Test C preemergence
Method in brief: as §1

corn (Zea mays) = assay: Test C preemergence
Method in brief: as §1

[8] = test system: pigweed (Amaranthus retroflexus); assay: Test C preemergence
Method in brief: as §1

[9] = test system: crabgrass (Digitaria sanguinalis); assay: Test C preemergence
Method in brief: as §1

[10] = test system: giant foxtail (Setaria faberii); assay: Test C preemergence
Method in brief: as §1

[11] = test system: morningglory (Ipomoea hederacea); assay: Test C preemergence
Method in brief: as §1

soybean (Glycine max) = assay: Test C preemergence
Method in brief: as §1

[12] = test system: yellow nutsedge (Cyperus esculentus); assay: Test C preemergence
Method in brief: as §1

[13] = test system: cocklebur (Xanthium strumarium); assay: Test C preemergence
Method in brief: as §1

Nightshade [14] = assay: Test C preemergence
[15] = test system: barnyardgrass (Echinochloa crus-galli); assay: Test B preemergence
Method in brief: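 Pre: seeded pots sprayed, chemical in non-phytotoxic solvent/surfactant mix. Post: plants 2–18 cm, 1–4 leaf, same formulation. Greenhouse 13–15 d; visual % control vs untreated, 0–100 scale.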

Sunflower = assay: Test C preemergence; conditions: Rate 500 g/ha, visual evaluation after 12 to 14 days
[16] = Rate 125 g/ha, scale 0 to 100, 0 no effect, 100 complete control
[17] = preemergence, Rate 62 g/ha, scale 0 to 100
[18] = preemergence, Rate 500 g/ha, visual evaluation after 12 to 14 days
[19] = preemergence, Rate 250 g/ha, scale 0 to 100, 0 no effect, 100 complete control

COc1cc(N2CCC(n3ccc(C(C)(C)C)n3)C2=O)ccc1Cl (stereo not shown) [Compound 117]
Plant response rating (0 to 100), Nightshade (Nightshade [1]): 100 | Plant response rating, Lambsquarters [2, 16]: 100 | Plant response rating, Lambsquarters [2, 17]: 100 | Plant response rating (0 to 100), Lambsquarters [2, 18]: 100 | Plant response rating, Lambsquarters [2, 19]: 100 | Plant response rating, Kochia (kochia (Kochia scoparia); [16]): 100 | Plant response rating, Kochia (kochia (Kochia scoparia); [17]): 90 | Plant response rating (0 to 100), Kochia (kochia (Kochia scoparia); [18]): 100 | Plant response rating, Kochia (kochia (Kochia scoparia); [19]): 100 | Plant response rating, Velvetleaf [3, 16]: 90 | Plant response rating, Velvetleaf [3, 17]: 80 | Plant response rating (0 to 100), Velvetleaf [3, 18]: 100 | Plant response rating, Velvetleaf [3, 19]: 100 | Plant response rating, Bermudagrass [4, 16]: 100 | Plant response rating, Bermudagrass [4, 17]: 100 | Plant response rating (0 to 100 where 0 is no effect and 100 is complete control), Bermudagrass [4, 18]: 100 | Plant response rating, Bermudagrass [4, 19]: 100 | Plant response rating, Goosegrass [5, 16]: 100 | Plant response rating, Goosegrass [5, 17]: 100 | Plant response rating (0 to 100), Goosegrass [5, 18]: 100 | Plant response rating, Goosegrass [5, 19]: 100 | Plant response rating, Johnsongrass [6, 16]: 50 | Plant response rating, Johnsongrass [6, 17]: 45 | Plant response rating (0 to 100), Johnsongrass [6, 18]: 90 | Plant response rating, Johnsongrass [6, 19]: 50 | Plant response rating, Cupgrass, Woolly [7, 16]: 100 | Plant response rating, Cupgrass, Woolly [7, 17]: 80 | Plant response rating (0 to 100), Cupgrass, Woolly [7, 18]: 100 | Plant response rating, Cupgrass, Woolly [7, 19]: 100 | Plant response rating, Corn (corn (Zea mays); [16]): 30 | Plant response rating, Corn (corn (Zea mays); [17]): 0 | Plant response rating (0 to 100), Corn (corn (Zea mays); [18]): 50 | Plant response rating, Corn (corn (Zea mays); [19]): 45 | Plant response rating, Pigweed [8, 16]: 100 | Plant response rating, Pigweed [8, 17]: 100 | Plant response rating (0 to 100), Pigweed [8, 18]: 30 | Plant response rating, Pigweed [8, 19]: 100 | Plant response rating, Crabgrass [9, 16]: 100 | Plant response rating, Crabgrass [9, 17]: 100 | Plant response rating (0 to 100), Crabgrass [9, 18]: 100 | Plant response rating, Crabgrass [9, 19]: 100 | Plant response rating, Foxtail, Giant [10, 16]: 0 | Plant response rating, Foxtail, Giant [10, 17]: 100 | Plant response rating (0 to 100), Foxtail, Giant [10, 18]: 100 | Plant response rating, Foxtail, Giant [10, 19]: 100 | Plant response rating, Morningglory [11, 16]: 10 | Plant response rating, Morningglory [11, 17]: 0 | Plant response rating (0 to 100), Morningglory [11, 18]: 100 | Plant response rating, Morningglory [11, 19]: 100 | Plant response rating, Soybean (soybean (Glycine max); [16]): 100 | Plant response rating, Soybean (soybean (Glycine max); [17]): 100 | Plant response rating (0 to 100), Soybean (soybean (Glycine max); [18]): 100 | Plant response rating, Soybean (soybean (Glycine max); [19]): 100 | Plant response rating, Nutsedge [12, 16]: 0 | Plant response rating, Nutsedge [12, 17]: 0 | Plant response rating (0 to 100), Nutsedge [12, 18]: 0 | Plant response rating, Nutsedge [12, 19]: 0 | Plant response rating, Cocklebur [13, 16]: 10 | Plant response rating, Cocklebur [13, 17]: 0 | Plant response rating (0 to 100), Cocklebur [13, 18]: 85 | Plant response rating, Cocklebur [13, 19]: 50 | Plant response rating, Nightshade (Nightshade [14]; Rate 62 g/ha, scale 0 to 100): 100 | Plant response rating, Nightshade (Nightshade [14]; [16]): 100 | Plant response rating, Nightshade (Nightshade [14]; Rate 250 g/ha, scale 0 to 100, 0 no effect, 100 complete control): 100 | Plant response rating, Barnyardgrass ([15]; Preemergence, Rate 500 g/ha, scale 0 to 100, 0 no effect, 100 complete control): 100 | Plant response rating, Barnyardgrass ([15]; preemergence, Rate 125 g/ha, scale of 0 to 100 where 0 is no effect and 100 is complete control, 13 to 15 days): 100 | Plant response rating (0 to 100), Sunflower (Sunflower): 65
